Reference: patent publication US20230118795A1, “ARYL OR HETEROARYL PYRIDONE OR PYRIMIDINE DERIVATIVE, PREPARATION METHOD AND USE THEREOF” (SUZHOU ZELGEN BIOPHARMACEUTICALS CO., LTD., priority 2020, published 2023)

test system: NCI-H358 (KRAS^G12C mutation) cell; experiment: Cell assay of antiproliferative activity against NCI-H358 cell (Celltiter-Glo, 5 days); format: cell-based; settings: 5 days incubation
Experimental: Cell Assay of Antiproliferative Activity of Compounds Against NCI-H358 (KRAS^G12C Mutation) Cell.
40 μL phosphate buffer was added to the outer wells of the 384 microplate, and 40 μL cell suspension to be tested was added to the other wells. Then the microplate was incubated in a carbon dioxide incubator overnight.
The compounds to be tested were gradiently diluted, each compound was performed 10 concentration gradients (diluted from 50 μM to 0.003 μM) and added 100 nL to the corresponding wells in the microplate. After addition, 40 μl of phosphate buffer was added to each well in rows A and P and columns 1 and 24, and then the microplate was incubated in a carbon dioxide incubator for 5 days.
20 μL of Promega Celltiter-Glo reagent was added to each well of the microplate, and then the luminescence signal was stabilized by oscillating at room temperature for 10 min. Then PekinElmer Envision multi-label analyzer was used to read.
Finally, GraphPad Prism software was used to calculate the IC50 value of the compound and the fitting curve was drawn.
Anti-proliferative activity of the compounds of the present invention against NCI-H358 (KRAS^G12C mutation) cell was shown in Table 1.

IC50	SMILES
30 nM	C=CC(=O)N1CCN(c2nc(=O)n(-c3c(S(C)(=O)=O)ccnc3C(C)C)c3nc(-c4c(O)cccc4F)c(F)cc23)[C@@H](C)C1 [Example 18, 4-((S)-4-acryloyl-2-methylpiperazin-1-yl)-6-fluoro-7-(2-fluoro-6-hydroxyphenyl)-1-(2-isopropyl-4-(methylsulfonyl)pyridin-3-yl)pyridino[2,3-d]pyrimidin-2 (1H)-one]
28 nM	C=CC(=O)N1CCN(c2nc(=O)n(-c3c(C(C)C)ccnc3S(C)(=O)=O)c3nc(-c4c(F)cccc4OC(C)=O)c(F)cc23)[C@@H](C)C1 [Example 24]
9 nM	C=CC(=O)N1CCN(c2nc(=O)n(-c3c(C4CCC4)cccc3S(C)(=O)=O)c3nc(-c4c(O)cccc4F)c(F)cc23)[C@@H](C)C1 [Example 25, 4-((S)-4-acryloyl-2-methylpiperazin-1-yl)-1-(2-cyclobutyl-6-(methylsulfonyl)phenyl)-6-fluoro-7-(2-fluoro-6-hydroxyphenyl) pyridino[2,3-d]pyrimidin-2(1H)-one]
18 nM	C=CC(=O)N1CCN(c2nc(=O)n(-c3c(C(C)C)cccc3S(C)(=O)=O)c3nc(-c4ccccc4Cl)c(F)cc23)[C@@H](C)C1 [Example 30, (S)-4-(4-acryloyl-2-methylpiperazin-1-yl)-7-(2-chlorophenyl)-6-fluoro-1-(2-isopropyl-6-(methylsulfonyl)phenyl) pyridino[2,3-d]pyrimidin-2(1H)-one]
8 nM	C=CC(=O)N1CCN(c2nc(=O)n(-c3c(C(C)C)cccc3S(C)(=O)=O)c3nc(-c4c(F)cccc4OC(C)=O)c(F)cc23)[C@@H](C)C1 [Example 31, 2-(4-((S))-4-acryloyl-2-methylpiperazin-1-yl)-6-fluoro-1-(2-isopropyl-6-(methylsulfonyl)phenyl)-2-oxo-1,2-dihydropyridino[2,3-d]pyrimidin-7-yl)-3-fluorophenyl acetate]
2500 nM	C=CC(=O)N1CCN(c2nc(=O)n(-c3cccnc3S(C)(=O)=O)c3nc(-c4c(O)cccc4F)c(F)cc23)[C@@H](C)C1 [Example 54, 4-((S)-4-acryloyl-2-methylpiperazin-1-yl)-6-fluoro-7-(2-fluoro-6-hydroxyphenyl)-1-(2-(methylsulfonyl)pyridin-3-yl) pyridino [2,3-d] pyrimidin-2(1H)-one]
8000 nM	C=CC(=O)N1CCN(c2nc(=O)n(-c3ccccc3S(C)(=O)=O)c3nc(-c4c(O)cccc4F)c(F)cc23)CC1CC#N (stereo not shown) [Example 56, 2-(1-acryloyl-4-(6-fluoro-7-(2-fluoro-6-hydroxyphenyl)-1-(2-(methylsulfonyl)phenyl)-2-oxo-1,2-dihydropyridino [2,3-d]pyrimidin-4-yl)piperazin-2-yl) acetonitrile]
10000 nM	C=CC(=O)N1CCN(c2nc(=O)n(-c3c(C)cccc3S(C)(=O)=O)c3nc(-c4c(O)cccc4F)c(F)cc23)CC1CC#N (stereo not shown) [Example 57, 2-(1-acryloyl-4-(6-fluoro-7-(2-fluoro-6-hydroxyphenyl)-1-(2-methyl-6-(methylsulfonyl)phenyl)-2-oxo-1,2-dihydropyridino [2,3-d]pyrimidin-4-yl)piperazin-2-yl) acetonitrile]

same assay, conditions: Homo sapiens, NCI-H358, 120 h, 5 days incubation

IC50	SMILES
41 nM	C=CC(=O)N1C[C@H](C)N(c2nc(=O)n(-c3c(CC)cccc3S(C)(=O)=O)c3nc(-c4c(O)cccc4F)c(F)cc23)C[C@H]1C [Example 12, 4-((2S,5R)-4-acryloyl-2,5-dimethylpiperazin-1-yl)-1-(2-ethyl-6-(methylsulfonyl)phenyl)-6-fluoro-7-(2-fluoro-6-hydroxyphenyl) pyridino [2,3-d] pyrimidin-2 (1H)-one]
15 nM	C=CC(=O)N1CCN(c2nc(=O)n(-c3c(C4CC4)cccc3S(C)(=O)=O)c3nc(-c4ccccc4F)c(F)cc23)[C@@H](C)C1 [Example 13, (S)-4-(4-acryloyl-2-methylpiperazin-1-yl)-1-(2-cyclopropyl-6-(methylsulfonyl)phenyl)-6-fluoro-7-(2-fluorophenyl) pyridin [2,3-d] pyrimidin-2(1H)-one]
360 nM	C=CC(=O)N1CCN(c2nc(=O)n(-c3c(C)cccc3S(=O)(=O)N(C)C)c3nc(-c4c(O)cccc4F)c(F)cc23)[C@@H](C)C1 [Example 14]
58 nM	C=CC(=O)N1CCN(c2nc(=O)n(-c3c(C4CC4)cccc3S(C)(=O)=O)c3nc(-c4c(F)cccc4F)c(F)cc23)[C@@H](C)C1 [Example 15, (S)-4-(4-acryloyl-2-methylpiperazin-1-yl)-1-(2-cyclopropyl-6-(methylsulfonyl)phenyl)-7-(2,6-difluorophenyl)-6-fluoropyridino [2,3-d] pyrimidin-2(1H)-one]
12 nM	C=CC(=O)N1CCN(c2nc(=O)n(-c3c(C(C)C)ccnc3S(C)(=O)=O)c3nc(-c4c(O)cccc4F)c(F)cc23)[C@@H](C)C1 [Example 16, 4-((S)-4-acryloyl-2-methylpiperazin-1-yl)-6-fluoro-7-(2-fluoro-6-hydroxyphenyl)-1-(4-isopropyl-2-(methylsulfonyl)pyridin-3-yl) pyridino [2,3-d] pyrimidin-2 (1H)-one]
31 nM	C=CC(=O)N1CCN(c2nc(=O)n(-c3c(C4CC4)cccc3S(C)(=O)=O)c3nc(-c4ccccc4Cl)c(F)cc23)[C@@H](C)C1 [Example 17, (S)-4-(4-acryloyl-2-methylpiperazin-1-yl)-7-(2-chlorophenyl)-1-(2-cyclopropyl-6-(methylsulfonyl)phenyl)-6-fluoropyridino [2,3-d] pyrimidin-2(1H)-one]
48 nM	C=CC(=O)N1CCN(c2nc(=O)n(-c3c(C(C)C)ccnc3S(C)(=O)=O)c3nc(-c4c(F)cccc4OC)c(F)cc23)[C@@H](C)C1 [Example 19, 4-((S)-4-acryloyl-2-methylpiperazin-1-yl)-6-fluoro-7-(2-fluoro-6-methoxyphenyl)-1-(4-isopropyl-2-(methylsulfonyl)pyridin-3-yl) pyridino[2,3-d]pyrimidin-2(1H)-one]
23 nM	C=CC(=O)N1CCN(c2nc(=O)n(-c3c(C(C)C)ccnc3S(C)(=O)=O)c3nc(-c4ccccc4Cl)c(F)cc23)[C@@H](C)C1 [Example 20, (S)-4-(4-acryloyl-2-methylpiperazin-1-yl)-7-(2-chlorophenyl)-6-fluoro-1-(4-isopropyl-2-(methylsulfonyl)pyridin-3-yl) pyridino[2,3-d] pyrimidin-2(1H)-one]
1200 nM	C=C(F)C(=O)N1CCN(c2nc(=O)n(-c3c(C(C)C)cccc3S(C)(=O)=O)c3nc(-c4c(O)cccc4F)c(F)cc23)[C@@H](C)C1 [Example 21]
39 nM	C=CC(=O)N1CCN(c2nc(=O)n(-c3c(C(C)C)ccnc3S(C)(=O)=O)c3nc(-c4ccc(F)cc4Cl)c(F)cc23)[C@@H](C)C1 [Example 22, (S)-4-(4-acryloyl-2-methylpiperazin-1-yl)-7-(2-chloro-4-fluorophenyl)-6-fluoro-1-(4-isopropyl-2-(methylsulfonyl)pyridin-3-yl) pyridino[2,3-d]pyrimidin-2(1H)-one]
1100 nM	C=C(F)C(=O)N1CCN(c2nc(=O)n(-c3c(C(C)C)cccc3S(C)(=O)=O)c3nc(-c4ccccc4Cl)c(F)cc23)[C@@H](C)C1 [Example 23, (S)-7-(2-chlorophenyl)-6-fluoro-4-(4-(2-fluoroacryloyl)-2-methylpiperazin-1-yl)-1-(2-isopropyl-6-(methylsulfonyl)phenyl)pyridino[2,3-d]pyrimidin-2(1H)-one]
18 nM	C=CC(=O)N1CCN(c2nc(=O)n(-c3c(C(C)C)ccnc3S(C)(=O)=O)c3nc(-c4cccc(F)c4Cl)c(F)cc23)[C@@H](C)C1 [Example 26, (S)-4-(4-acryloyl-2-methylpiperazin-1-yl)-7-(2-chloro-3-fluorophenyl)-6-fluoro-1-(4-isopropyl-2-(methylsulfonyl)pyridin-3-yl) pyridino[2,3-d] pyrimidin-2(1H)-one]
30 nM	C=CC(=O)N1CCN(c2nc(=O)n(-c3c(C(C)C)ccnc3S(C)(=O)=O)c3nc(-c4c(O)cccc4Cl)c(F)cc23)[C@@H](C)C1 [Example 27, 4-((S)-4-acryloyl-2-methylpiperazin-1-yl)-7-(2-chloro-6-hydroxyphenyl)-6-fluoro-1-(4-isopropyl-2-(methylsulfonyl)pyridin-3-yl) pyridino[2,3-d] pyrimidin-2(1H)-one]
26 nM	C=CC(=O)N1CCN(c2nc(=O)n(-c3c(C(C)C)ccnc3S(C)(=O)=O)c3nc(-c4c(F)cccc4Cl)c(F)cc23)[C@@H](C)C1 [Example 28, 4-((S)-4-acryloyl-2-methylpiperazin-1-yl)-7-(2-chloro-6-fluorophenyl)-6-fluoro-1-(4-isopropyl-2-(methylsulfonyl)pyridin-3-yl) pyridino[2,3-d] pyrimidin-2(1H)-one]
53 nM	C=CC(=O)N1CCN(c2nc(=O)n(-c3c(C(C)C)cncc3S(C)(=O)=O)c3nc(-c4c(O)cccc4F)c(F)cc23)[C@@H](C)C1 [Example 29]
5300 nM	C=CC(=O)N1CCN(c2nc(=O)n(-c3cnccc3S(C)(=O)=O)c3nc(-c4c(O)cccc4F)c(F)cc23)[C@@H](C)C1 [Example 55]
10000 nM	C=CC(=O)N1CCN(c2nc(=O)n(-c3cccnc3S(C)(=O)=O)c3nc(-c4c(O)cccc4F)c(F)cc23)CC1CC#N (stereo not shown) [Example 58, 2-(1-acryloyl-4-(6-fluoro-7-(2-fluoro-6-hydroxyphenyl)-1-(2-(methylsulfonyl)pyridin-3-yl)-2-oxo-1,2-dihydropyridino [2,3-d]pyrimidin-4-yl)piperazin-2-yl) acetonitrile]
